# Source: PMC8568133, “Evaluation of bisphenylthiazoles as a promising class for combating multidrug-resistant fungal infections” (PLoS ONE, 2021)
# Read-outs that look alike come from different tables or passages of the source.
# Tests used:
# MRSA USA300 = experiment: Broth microdilution MIC, initial antibacterial screening; format: cell-based, S. aureus; settings: Staphylococcus aureus; MRSA USA300; read-out: MIC
# Procedure, shortened: (§1)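 Broth microdilution per CLSI with ~5 × 10^5 CFU/mL inoculum and serially diluted compounds. S. aureus and E. coli were tested in CAMHB, aerobic, 37 °C, 18–20 h; C. difficile in supplemented brain heart infusion broth (yeast extract, hemin, vitamin K), anaerobic, 37 °C, 48 h. MIC read as visible growth.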
# [1] = test system: E. coli JW55031 (tolC-mutant); experiment: microbe, parasite or virus in culture; format: cell-based, Escherichia coli; settings: Escherichia coli
# Procedure, shortened: as §1
# Candida auris [2] = experiment: Checkerboard assay of compound 17 with standard antifungals; format: cell-based; settings: for MIC: Candidozyma auris, checkerboard, agent alone
# Candida tropicalis = experiment: Antifungal broth microdilution MIC (50% growth inhibition) and MFC; format: cell-based; settings: Candida tropicalis, ATCC1369, C. tropicalis ATCC 1369
# Procedure, shortened: (§2)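 Clinical isolates were tested in triplicate by CLSI broth microdilution over 128–0.06 μg/mL. MIC was the lowest concentration giving 50% growth inhibition after 35 °C incubation, 24 h for Candida, 48 h for Cryptococcus. For MFC, wells without growth were plated on YPD agar, 37 °C for 24 hours; MFC meant 99.9% growth reduction.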
# Candida krusei = experiment: as above; format: cell-based; settings: Pichia kudriavzevii; for MIC: read-out: MIC
# Procedure, shortened: as §2
# Candida albicans = experiment: as above; format: cell-based; settings: Candida albicans; for MIC: read-out: MIC
# Procedure, shortened: as §2
# Candida auris [3] = experiment: as above; format: cell-based; settings: for MIC: read-out: MIC
# Procedure, shortened: as §2
# Candida glabrata = experiment: as above; format: cell-based; settings: Nakaseomyces glabratus; for MIC: read-out: MIC
# Procedure, shortened: as §2
# Candida strains = experiment: Minimum fungicidal concentration, summary over Candida strains; format: cell-based; settings: strains of Table 6
# Method: Serial dilutions (from 128 μg/mL to 0.06 μg/mL) of the tested compounds and control drugs (fluconazole, itraconazole and amphotericin) (in triplicates), were screened against clinical isolates of Candida albicans, Candida auris, Candida glabrata, Candida parapsilosis, Candida tropicalis, Candida krusei, Cryptococcus neoformans, Cryptococcus gattii and Aspergillus fumigatus species using the broth microdilution method according to the Clinical and Laboratory Standards Institute guidelines. MICs were determined as the lowest concentration of the compounds that inhibited the fungal growth by 50% after incubation at 35 °C for 24 h (for Candida and Aspergillus), or 48 h (for Cryptococcus). The minimum fungicidal concentration (MFC) of these compounds was tested by plating 4 μL from wells with no growth onto YPD agar plates. The plates were incubated at 37 °C for 24 hours before recording the MFC, which was categorized as the lowest concentration that reduced fungal growth by 99.9% [45]. The experiment was repeated three independent times.
# [4] = test system: Lactobacillus casei ATCC-334; experiment: Broth microdilution MIC against normal human microbiota; format: cell-based; settings: Lacticaseibacillus casei, ATCC334; Lactobacillus casei ATCC-334; read-out: MIC
# Procedure, shortened: (§3)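 Inoculum of about 5 x 10^5 CFU/mL in MRS broth, with compounds serially diluted in triplicate. MICs read after 48 hours at 37 °C; three independent repeats.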
# [5] = test system: Lactobacillus gasseri HM-400; experiment: as above; format: cell-based; settings: HM400; Lactobacillus gasseri HM-400; read-out: MIC
# Procedure, shortened: as §3
# [6] = test system: Lactobacillus crispatus HM-370; experiment: as above; format: cell-based; settings: HM370; Lactobacillus crispatus HM-370; read-out: MIC
# Procedure, shortened: as §3
# Cryptococcus neoformans = experiment: Antifungal broth microdilution MIC (50% growth inhibition, 48 h); format: cell-based; settings: Cryptococcus neoformans, read-out: MIC
# Procedure, shortened: as §2
# Cryptococcus gattii = experiment: as above; format: cell-based; settings: Cryptococcus gattii, read-out: MIC
# Procedure, shortened: as §2
# [7] = test system: E. coli BW25113 (wild-type); experiment: Broth microdilution MIC, initial antibacterial screening; format: cell-based, Escherichia coli; settings: Escherichia coli, read-out: MIC
# Procedure, shortened: as §1
# [8] = ATCC10231, C. albicans ATCC 10231
# [9] = ATCC66032, C. glabrata ATCC 66032
compound,measurement,setting,value
"Cc1nc(-c2ccc(-c3ccccc3)cc2)sc1-c1nnc(N[C@@H]2CCCC[C@@H]2N)o1 (relative stereo) [Compound 17, cis-N-{5-[2-((1,1’-Biphenyl)-4-yl)-4-methylthiazol-5-yl]-1,3,4-oxadiazol-2-yl}cyclo-hexane-1,2-diamine]",MIC,MRSA USA300,> 64 µg/mL
same,MIC,[1],> 64 µg/mL
same,"MIC Combined, 17","Candida auris [2]; Candida auris 381, compound 17 in combination with 5-Fluorocytosine",0.25 µg/mL
same,"MIC Combined, 17","Candida auris [2]; Candida auris 381, compound 17 in combination with Amphotericin B",0.25 µg/mL
same,"MIC Combined, 17","Candida auris [2]; Candida auris 381, compound 17 in combination with Caspofungin",0.25 µg/mL
same,"MIC Combined, 17","Candida auris [2]; Candida auris 381, compound 17 in combination with Fluconazole",0.25 µg/mL
same,"MIC Combined, 17","Candida auris [2]; Candida auris 385, compound 17 in combination with 5-Fluorocytosine",0.25 µg/mL
same,"MIC Combined, 17","Candida auris [2]; Candida auris 385, compound 17 in combination with Amphotericin B",0.25 µg/mL
same,"MIC Combined, 17","Candida auris [2]; Candida auris 385, compound 17 in combination with Caspofungin",0.25 µg/mL
same,"MIC Combined, 17","Candida auris [2]; Candida auris 385, compound 17 in combination with Fluconazole",2 µg/mL
same,MIC,Candida auris [2]; Candida auris 381 (azole-sensitive),1 µg/mL
same,MIC,Candida auris [2]; Candida auris 385 (azole-resistant),2 µg/mL
same,relationship when combined with antifungals,"Candida auris [2]; combined with either fluconazole, 5-fluorocytosine or caspofungin, two tested C. auris isolates",additive
same,MFC,Candida tropicalis,> 64 µg/mL
same,MIC,Candida tropicalis; read-out: MIC,4 µg/mL
same,MIC,"Candida krusei; ATCC34135, C. krusei ATCC 34135",1 µg/mL
same,MFC,Candida krusei; C. krusei CAB 396420,> 64 µg/mL
same,MIC,Candida krusei; C. krusei CAB 396420,1 µg/mL
same,MFC,Candida albicans; [8],> 64 µg/mL
same,MIC,Candida albicans; [8],4 µg/mL
same,MIC,Candida albicans; C. albicans NR-29448 (fluconazole-resistant),2 µg/mL
same,MIC,Candida albicans; C. albicans SS5314 (wild-type),1 µg/mL
same,MFC,Candida albicans; C. albicans NR-29448,> 64 µg/mL
same,MFC,Candida auris [3]; Candida auris 390,>64 µg/mL
same,MIC,"Candida auris [3]; Candidozyma auris, C. auris 381",1 µg/mL
same,MIC,"Candida auris [3]; Candidozyma auris, C. auris 382",2 µg/mL
same,MIC,"Candida auris [3]; Candidozyma auris, C. auris 383",1 µg/mL
same,MIC,"Candida auris [3]; Candidozyma auris, C. auris 384",1 µg/mL
same,MIC,"Candida auris [3]; Candidozyma auris, C. auris 385",2 µg/mL
same,MIC,"Candida auris [3]; Candidozyma auris, C. auris 386",1 µg/mL
same,MIC,"Candida auris [3]; Candidozyma auris, C. auris 387",2 µg/mL
same,MIC,"Candida auris [3]; Candidozyma auris, C. auris 388",1 µg/mL
same,MIC,"Candida auris [3]; Candidozyma auris, C. auris 389",2 µg/mL
same,MIC,"Candida auris [3]; Candidozyma auris, C. auris 390",1 µg/mL
same,MFC,"Candida auris [3]; Candidozyma auris, Candida auris 389, read-out: MFC",> 64 µg/mL
same,MFC,Candida glabrata; [9],> 64 µg/mL
same,MIC,Candida glabrata; [9],0.5 µg/mL
same,MFC,Candida glabrata; C. glabrata ATCC MYA-2950,> 64 µg/mL
same,MIC,Candida glabrata; C. glabrata ATCC MYA-2950,0.5 µg/mL
same,fungistatic or fungicidal activity,Candida strains,fungistatic
same,melting point,,145 to 146 °C
same,MIC,[4],128 µg/mL
same,MIC,[5],128 µg/mL
same,MIC,[6],> 128 µg/mL
same,MIC,Cryptococcus neoformans; C. neoformans NR 41298,1 µg/mL
same,MIC,Cryptococcus neoformans; C. neoformans NR 41300,1 µg/mL
same,MIC,Cryptococcus neoformans; C. neoformans NR 48770,1 µg/mL
same,MIC,Cryptococcus gattii; C. gattii NR 43209,0.5 µg/mL
same,MIC,Cryptococcus gattii; C. gattii NR 43210,0.5 µg/mL
same,MIC,[7],> 64 µg/mL
